In patent US6645954B2, “Compositions comprising ethisterone or its derivatives” (Multimed Limited, priority 1998, dated 2003):
Values joined by “and” are separate entries in the source; they are usually repeats but may differ in a detail not shown here. Identical values can stand only once.

How the values were obtained:
[1] = Sexual activity (intercourse per month) reported by subjects; format: in vivo, human; conditions: Example 5, person; D1 alone, within 3 months; before: once a month
[2] = Andropause CheckList score (ACL) and clinical symptom response in hypogonadal men; format: in vivo, human; conditions: for clinical response / symptoms: Example 2, person, pre-treatment ACL 25, successive treatments
Procedure: ACL—Andropause CheckList Score—A questionnaire rating the incidence and severity of symptoms of the andropause. The greater the checklist score, the more severe are the symptoms.
These consecutive referrals were evaluated at interview by administering a questionnaire, the “Andropause Check List” which rated each symptom on a five point rating scale as being absent (0), slight (1), moderate (2), severe (3) or total (4). It also included questions on the monthly frequency of intercourse and masturbation. A detailed history was taken focussing especially on factors which might affect testicular function and this was entered onto a computerised database (Microsoft Access).
(§1) During treatment, the severity of symptoms and level of sexual activity on the Andropause Check List score was reassessed at three monthly intervals, as well as weight, blood pressure, resting pulse rate, full endocrine, biochemical and haematological profiles, and in some cases ultrasound studies of the prostate and testes. In all cases, subjects were used as their own controls in the comparison of the effects of treatment. All results were stored in a specially designed Microsoft Access database, and […] analyes were carried out using the SPSS version 9 programme.

[3] = system: oestrogen receptors; conditions: cited from earlier work
[4] = system: Total Testosterone; experiment: Total Testosterone (TT) in fasting blood; format: in vivo, human
From the text: TT—Total Testosterone in nmol/l (NR 13-35)
(§2) Fasting blood samples were taken between 9 and 12 am to minimize the effects of diurnal variation, and analyses included the standard full biochemical, lipid and haematology profiles, prostate specific antigen and routine urine analysis. The endocrine assessment included follicle stimulating hormone (FSH) and luteinizing hormone (LH) prolactin, total testosterone (TT), dihydrotestosterone (DHT), sex hormone binding globulin (SHBG), oestradiol (E2) cortisol and either total thyroxine or TSH.

[5] = system: Total Testosterone; conditions: cited from earlier work
[6] = system: Luteinising Hormone; experiment: Luteinising Hormone (LH) in fasting blood; format: in vivo, human
From the text: LH—Luteinising Hormone in IU/l (NR 0.7-6)
as §2

[7] = system: Oestradiol; experiment: Oestradiol (E2) in fasting blood; format: in vivo, human
From the text: as §2

[8] = system: Sex Hormone Binding Globulin; experiment: Sex Hormone Binding Globulin (SHBG) in fasting blood; format: in vivo, human; conditions: for Sex Hormone Binding Globulin: Clinical trial, FIG. 4, started above the normal range (20-45 nmol/l) in Danazol groups
From the text: SHBG—Sex Hormone Binding Globulin in nmol/l (NR 20-45)
as §2

[9] = system: Follicle Stimulating Hormone; experiment: Follicle Stimulating Hormone (FSH) in fasting blood; format: in vivo, human
From the text: FSH—Follicle Stimulating Hormone in IU/l (NR 1-6)
as §2

[10] = molecular target: T1, progesterone receptors (Homo sapiens, UniProt P06401); conditions: cited from earlier work
T1 sequence (P06401 1-933): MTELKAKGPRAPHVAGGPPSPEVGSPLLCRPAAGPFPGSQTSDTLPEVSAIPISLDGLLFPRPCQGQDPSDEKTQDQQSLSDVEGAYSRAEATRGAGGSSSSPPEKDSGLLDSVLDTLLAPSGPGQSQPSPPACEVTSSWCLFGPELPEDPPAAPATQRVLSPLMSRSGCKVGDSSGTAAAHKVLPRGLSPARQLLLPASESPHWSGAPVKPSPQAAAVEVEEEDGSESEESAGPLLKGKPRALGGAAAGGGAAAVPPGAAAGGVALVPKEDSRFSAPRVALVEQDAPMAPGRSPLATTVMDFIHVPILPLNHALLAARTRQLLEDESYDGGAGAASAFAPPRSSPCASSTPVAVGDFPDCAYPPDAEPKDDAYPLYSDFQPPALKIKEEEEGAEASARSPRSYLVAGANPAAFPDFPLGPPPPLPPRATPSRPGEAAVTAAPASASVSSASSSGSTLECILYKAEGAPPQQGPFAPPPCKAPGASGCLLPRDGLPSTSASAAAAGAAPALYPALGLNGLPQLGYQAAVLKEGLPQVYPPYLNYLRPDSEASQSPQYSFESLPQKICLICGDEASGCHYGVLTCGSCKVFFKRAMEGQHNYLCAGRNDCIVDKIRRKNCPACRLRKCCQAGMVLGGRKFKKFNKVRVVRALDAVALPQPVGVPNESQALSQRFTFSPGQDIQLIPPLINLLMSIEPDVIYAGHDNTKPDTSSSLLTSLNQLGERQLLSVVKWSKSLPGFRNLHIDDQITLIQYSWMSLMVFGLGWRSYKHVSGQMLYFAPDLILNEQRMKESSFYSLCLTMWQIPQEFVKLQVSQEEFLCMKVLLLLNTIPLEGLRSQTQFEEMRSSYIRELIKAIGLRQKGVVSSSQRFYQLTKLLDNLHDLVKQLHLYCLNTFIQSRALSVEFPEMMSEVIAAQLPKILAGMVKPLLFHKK

[11] = system: Free Androgen Index; experiment: Free Androgen Index (FAI = TT/SHBG x 100); format: in vivo, human
From the text: It has been found (Carruthers, M. ‘The Male Menopause, Harpercollins’, London, 1996) that the symptoms associated with this condition arise due to an absolute or relative insufficiency of testosterone, particularly the latter, caused by a reduction in the Free Active Testosterone (FAT); that is a lack of testosterone present in an unbound state in blood plasma. Testosterone in vivo can be bound to sex hormone binding globulin (SHBG) and to a lesser extent, albumin. When bound the testosterone is not freely available to the body or bio-available. One of the best measures of this is the ‘Free Androgen Index’ (FAI). This is calculated by dividing the Total Testosterone (TT) by the ‘sex Hormone Binding Globulin’ (SHBG) and multiplying by a hundred to express it as a percentage. In the healthy, asymptomatic male this is normally in the range 70-100%. Symptoms of the andropause regularly appear when this drops below 50%, except in a few cases where the TT is low and the body appears to compensate by reducing SHBG levels to maintain the FAI.
FAI—Free Androgen Index (NR 70-100%)

[12] = system: Prostate Specific Antigen; experiment: PSA, biochemistry and haematology profiles during treatment; format: in vivo, human; conditions: Example 5; D1 alone, 2 years
From the text: PSA—Total Prostate Specific Antigen in ug/l (NR<4.0)
as §2, §1

[13] = system: dihydrotestosterone; experiment: Dihydrotestosterone (DHT) in fasting blood; format: in vivo, human; conditions: Clinical trial; treatment alone, without Danazol
From the text: as §2

[14] = Adverse effects / tolerability; conditions: Example 2
[15] = Example 1, R3 increased monthly to R4 then R6

For C#C[C@]1(O)CC[C@H]2[C@@H]3CCC4=Cc5oncc5C[C@]4(C)[C@H]3CC[C@@]21C [Danazol, [1,2], oxazolo[4,5-b]17alpha-pregna-2,4-dien-20-yn-17beta-ol], the sexual activity [1] was “twice a week”, the “total Andropause Check List (ACL) score” value ([2]; Clinical trial, FIG. 1, Danazol 100 mg alternate mornings or daily added to testosterone treatment, up to six 3-6 monthly visits) was “fell equally” and the “efficacy of testosterone treatment for hypogonadal men” value ([2]; Clinical trial, danazol added to three different forms of testosterone treatment, particularly where SHBG raised) was “greatly increased their efficacy”. The clinical response ([2]; Example 5, D1 alone, for 2 years) was “maintained”, the ACL ([2]; Example 5, D1 alone, within 3 months, pre-treatment ACL 26) was 14 and the “interaction with oestrogen receptors” value [3] was “does not interact with oestrogen receptors to any significant extent”. For the same compound, the TT ([4]; Example 5, D1 alone, within 3 months, pre-treatment 50) was 48 nmol/L, the total plasma testosterone ([5]; previous uses in women and men at doses of 200 to 600 mg) was “reduced” and the “LH (gonadotrophins)” value ([6]; Clinical trial, FIG. 7, Danazol added to the testosterone treatment) was “greater reductions”. The LH ([6]; Example 5, D1 alone, within 3 months, pre-treatment 6.0) was 2.9 IU/l, the E2 ([7]; Example 5, D1 alone, within 3 months, pre-treatment 120) was less than 44 pmol/L and the “Sex Hormone Binding Globulin” value [8] was “uniformly ended at the bottom end of it”. The SHBG ([8]; Example 5, D1 alone, successive values over 2 years, listed as D1) was 19 nmol/L and 23 nmol/L and 17 nmol/L, the SHBG ([8]; Example 5, D1 alone, within 3 months, pre-treatment 72) was 39 nmol/L and the FSH ([9]; Clinical trial, FIG. 6, Danazol added to the testosterone treatment) was “greater reductions”. For the same compound, the FSH ([9]; Example 5, D1 alone, within 3 months, pre-treatment 5.9) was 4.5 IU/l, the “affinity for progesterone receptors” value [10] was “low affinity” and the “Free Androgen Indices” value ([11]; Clinical trial, FIG. 5, Danazol added to the three testosterone treatments) was “markedly increased”. For the same compound, the FAI ([11]; Example 5, D1 alone, within 3 months, pre-treatment 69.4) was 123% and the “effects on PSA, full biochemistry or haematological profile” value [12] was “no adverse effects”.
In the case of C[C@H]1CC(=O)C[C@@H]2CC[C@H]3[C@@H]4CC[C@H](O)[C@@]4(C)CC[C@@H]3[C@]21C [ME, mesterolone], the “clinical response / symptoms” value [2] is reported as “poor clinical response” and the DHT [13] is reported as “trebling”.
With CCCCCCCCCCC(=O)O[C@H]1CC[C@H]2[C@@H]3CCC4=CC(=O)CC[C@]4(C)[C@H]3CC[C@]12C [Restandol, testosterone undecanoate] the relief of symptoms ([2]; Example 1, person, R3 increased at monthly intervals to R4 then R6) was “only partial relief of symptoms”, the “clinical response / symptoms” value [2] was “poor clinical response” and the clinical results ([2]; Example 6, further reduction of testosterone dosage to the lowest level of R2) was “excellent”. For the same compound, the TT ([4]; Example 1, R3 increased monthly to R4 then R6, pre-treatment 27.4) was 21.4 nmol/L, the TT ([4]; Example 3, person, R6, after 3 months, pre-treatment 20) was 22.2 nmol/L and the LH ([6]; Example 1, R3 increased monthly to R4 then R6, pre-treatment 6.1) was 6.7 IU/l. For the same compound, the E2 [7, 15] was 178 pmol/L, the “Sex Hormone Binding Globulin” value [8] was “reduction in SHBG levels on its own” and the SHBG ([8]; Example 1, R3 increased monthly to R4 then R6, Restandol alone, pre-treatment 73) was 47 nmol/L. The SHBG ([8]; Example 3, R6, after 3 months, pre-treatment 56.7) was 112 nmol/L, the FSH [9, 15] was 8.9 IU/l and the FAI ([11]; Example 1, R3 increased monthly to R4 then R6, pre-treatment 38%) was 46%. The FAI ([11]; Example 3, R6, after 3 months, pre-treatment 35) was 19.8%.
In the case of C[C@]12CC[C@H]3[C@@H](CCC4=CC(=O)CC[C@@]43C)[C@@H]1CC[C@@H]2O [TI, testosterone], the symptoms ([2]; Example 1, TI, 3 years after starting treatment) is reported as “symptoms reappeared”, the erection problems ([2]; Example 1, after change to TI) is reported as “rapidly improved” and the “clinical response / symptoms” value [2] is reported as “relieved their symptoms”. The TT ([4]; Example 1, TI, a year later) was 35.6 nmol/L, the TT ([4]; Example 3, TI, after 6 months) was 30.6 nmol/L and the mean testosterone levels ([5]; previous study, samples taken 3 months after implantation) was 45 nmol/L. The LH ([6]; Example 1, TI, a year later) was “total suppression”, the DHT [13] was “no increase” and the SHBG ([8]; Example 1, TI, a year later) was 74 nmol/L. For the same compound, the SHBG ([8]; Example 3, TI alone, successive values during the following 2 years) was 82.1 nmol/L and 85 nmol/L and 54 nmol/L and 81 nmol/L, the SHBG ([8]; Example 3, TI, after 6 months) was 95.3 nmol/L and the FSH ([9]; Example 1, TI, a year later) was “total suppression”. The FAI ([11]; Example 1, TI, a year later) was 48%, the FAI ([11]; Example 3, TI, after 6 months) was 32% and the “adverse events of implant” value [14] was “became infected on several occasions, with extrusion of pellets”.
